Measured values as given in paper PMC8800111 (The Journal of Biological Chemistry, 2021).

Experiments:
Assay type in all cases: cell-based
[1] = biological target: proteins of U3A human fibrosarcoma cells (4462 proteins detected) (Homo sapiens, UniProt O60563); conditions: protein CCNT1; U3A cells
[2] = biological target: proteins of U3A human fibrosarcoma cells (4462 proteins detected) (Homo sapiens, UniProt O75116); conditions: protein ROCK2; U3A cells
[3] = biological target: proteins of U3A human fibrosarcoma cells (4462 proteins detected) (Homo sapiens, UniProt P08174); conditions: protein CD55; U3A cells
[4] = biological target: proteins of U3A human fibrosarcoma cells (4462 proteins detected) (Homo sapiens, UniProt P16298); conditions: protein PPP3CB; U3A cells
[5] = biological target: proteins of U3A human fibrosarcoma cells (4462 proteins detected) (Homo sapiens, UniProt P36507); conditions: protein MAP2K2; U3A cells
[6] = biological target: proteins of U3A human fibrosarcoma cells (4462 proteins detected) (Homo sapiens, UniProt P46939); conditions: protein UTRN; soluble abundance after heat, U3A cells
[7] = biological target: proteins of U3A human fibrosarcoma cells (4462 proteins detected) (Homo sapiens, UniProt P50213); conditions: protein IDH3A; U3A cells
[8] = biological target: proteins of U3A human fibrosarcoma cells (4462 proteins detected) (Homo sapiens, UniProt P63096); conditions: protein GNAI1; soluble abundance after heat, U3A cells
[9] = biological target: proteins of U3A human fibrosarcoma cells (4462 proteins detected) (Homo sapiens, UniProt P68366); conditions: protein TUBA4A; U3A cells
Sequence of proteins of U3A human fibrosarcoma cells (4462 proteins detected) (Homo sapiens, UniProt P68366) (P68366 whole entry): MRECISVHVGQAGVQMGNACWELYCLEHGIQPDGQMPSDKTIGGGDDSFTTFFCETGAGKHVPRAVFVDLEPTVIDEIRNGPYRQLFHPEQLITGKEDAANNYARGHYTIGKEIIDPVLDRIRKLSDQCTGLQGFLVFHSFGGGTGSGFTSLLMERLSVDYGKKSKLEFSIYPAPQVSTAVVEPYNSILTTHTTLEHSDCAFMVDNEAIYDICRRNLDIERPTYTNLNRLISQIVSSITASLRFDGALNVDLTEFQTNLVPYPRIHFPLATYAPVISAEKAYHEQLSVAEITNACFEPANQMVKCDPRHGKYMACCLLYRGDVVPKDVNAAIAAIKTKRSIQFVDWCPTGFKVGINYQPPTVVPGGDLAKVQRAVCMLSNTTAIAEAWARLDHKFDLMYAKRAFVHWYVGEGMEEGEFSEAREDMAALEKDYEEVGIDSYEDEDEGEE

[10] = biological target: proteins of U3A human fibrosarcoma cells (4462 proteins detected) (Homo sapiens, UniProt Q01518); conditions: protein CAP1; U3A cells
[11] = biological target: proteins of U3A human fibrosarcoma cells (4462 proteins detected) (Homo sapiens, UniProt Q08623); conditions: protein HDHD1, U3A cells
[12] = biological target: proteins of U3A human fibrosarcoma cells (4462 proteins detected) (Homo sapiens, UniProt Q13541); conditions: protein EIF4EBP1, U3A cells
[13] = biological target: proteins of U3A human fibrosarcoma cells (4462 proteins detected) (Homo sapiens, UniProt Q15043); conditions: protein SLC39A14; soluble abundance after heat, U3A cells
Sequence of proteins of U3A human fibrosarcoma cells (4462 proteins detected) (Homo sapiens, UniProt Q15043) (Q15043 31-492): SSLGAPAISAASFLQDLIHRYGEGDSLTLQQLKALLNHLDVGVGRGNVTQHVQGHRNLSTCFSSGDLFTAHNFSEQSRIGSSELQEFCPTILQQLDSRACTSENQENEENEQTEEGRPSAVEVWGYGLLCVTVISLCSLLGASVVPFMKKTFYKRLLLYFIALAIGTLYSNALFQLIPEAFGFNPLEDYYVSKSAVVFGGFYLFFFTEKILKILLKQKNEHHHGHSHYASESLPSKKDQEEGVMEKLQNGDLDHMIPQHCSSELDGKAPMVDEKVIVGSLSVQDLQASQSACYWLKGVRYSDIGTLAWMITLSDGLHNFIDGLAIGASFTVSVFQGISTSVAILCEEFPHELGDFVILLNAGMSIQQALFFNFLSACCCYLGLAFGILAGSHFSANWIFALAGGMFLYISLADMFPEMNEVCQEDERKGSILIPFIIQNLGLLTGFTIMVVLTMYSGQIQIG

[14] = biological target: proteins of U3A human fibrosarcoma cells (4462 proteins detected) (Homo sapiens, UniProt Q16576); conditions: protein RBBP7; soluble abundance after heat, U3A cells
Sequence of proteins of U3A human fibrosarcoma cells (4462 proteins detected) (Homo sapiens, UniProt Q16576) (Q16576 whole entry): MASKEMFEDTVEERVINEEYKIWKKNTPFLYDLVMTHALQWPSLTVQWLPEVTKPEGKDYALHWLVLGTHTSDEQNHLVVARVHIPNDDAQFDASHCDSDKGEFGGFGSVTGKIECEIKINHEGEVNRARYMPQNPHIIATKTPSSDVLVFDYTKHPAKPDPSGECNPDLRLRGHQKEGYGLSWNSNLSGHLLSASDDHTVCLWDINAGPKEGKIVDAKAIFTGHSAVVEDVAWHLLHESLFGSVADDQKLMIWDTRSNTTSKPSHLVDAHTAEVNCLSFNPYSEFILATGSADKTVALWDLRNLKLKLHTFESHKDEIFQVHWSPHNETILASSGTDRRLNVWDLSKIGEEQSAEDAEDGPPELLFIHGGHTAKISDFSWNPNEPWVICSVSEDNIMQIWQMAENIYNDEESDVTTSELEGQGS

[15] = biological target: proteins of U3A human fibrosarcoma cells (4462 proteins detected) (Homo sapiens, UniProt Q16891); conditions: protein IMMT; U3A cells
[16] = biological target: proteins of U3A human fibrosarcoma cells (4462 proteins detected) (Homo sapiens, UniProt Q93008); conditions: protein USP9X; soluble abundance after heat, U3A cells
[17] = biological target: proteins of U3A human fibrosarcoma cells (4462 proteins detected) (Homo sapiens, UniProt Q96D46); conditions: protein NMD3; soluble abundance after heat, U3A cells
[18] = biological target: proteins of U3A human fibrosarcoma cells (4462 proteins detected) (Homo sapiens, UniProt Q96PV6); conditions: protein LENG8; U3A, 10 μM, 2 h
[19] = biological target: proteins of U3A human fibrosarcoma cells (4462 proteins detected) (Homo sapiens, UniProt Q9BUL5); conditions: protein PHF23, U3A cells
[20] = biological target: proteins of U3A human fibrosarcoma cells (4462 proteins detected) (Homo sapiens, UniProt Q9NPD8); conditions: protein UBE2T; soluble abundance after heat, U3A cells
[21] = biological target: proteins of U3A human fibrosarcoma cells (4462 proteins detected) (Homo sapiens, UniProt Q9NRY5); conditions: protein FAM114A2; U3A cells
Sequence of proteins of U3A human fibrosarcoma cells (4462 proteins detected) (Homo sapiens, UniProt Q9NRY5) (Q9NRY5 whole entry): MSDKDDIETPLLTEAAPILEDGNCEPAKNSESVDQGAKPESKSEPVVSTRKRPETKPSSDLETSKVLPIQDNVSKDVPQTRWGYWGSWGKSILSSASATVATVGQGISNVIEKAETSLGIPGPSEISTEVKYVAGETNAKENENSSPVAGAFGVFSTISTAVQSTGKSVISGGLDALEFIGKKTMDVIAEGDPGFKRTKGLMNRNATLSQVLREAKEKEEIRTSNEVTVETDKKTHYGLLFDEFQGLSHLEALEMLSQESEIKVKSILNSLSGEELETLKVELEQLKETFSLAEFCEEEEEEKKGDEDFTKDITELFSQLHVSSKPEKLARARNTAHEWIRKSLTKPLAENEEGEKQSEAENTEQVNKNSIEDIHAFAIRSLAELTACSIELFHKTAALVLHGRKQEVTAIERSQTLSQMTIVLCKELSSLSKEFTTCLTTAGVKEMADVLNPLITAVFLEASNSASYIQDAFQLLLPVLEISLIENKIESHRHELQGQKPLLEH

[22] = biological target: proteins of U3A human fibrosarcoma cells (4462 proteins detected) (Homo sapiens, UniProt Q9NS91); conditions: protein RAD18; U3A cells
Sequence of proteins of U3A human fibrosarcoma cells (4462 proteins detected) (Homo sapiens, UniProt Q9NS91) (Q9NS91 whole entry): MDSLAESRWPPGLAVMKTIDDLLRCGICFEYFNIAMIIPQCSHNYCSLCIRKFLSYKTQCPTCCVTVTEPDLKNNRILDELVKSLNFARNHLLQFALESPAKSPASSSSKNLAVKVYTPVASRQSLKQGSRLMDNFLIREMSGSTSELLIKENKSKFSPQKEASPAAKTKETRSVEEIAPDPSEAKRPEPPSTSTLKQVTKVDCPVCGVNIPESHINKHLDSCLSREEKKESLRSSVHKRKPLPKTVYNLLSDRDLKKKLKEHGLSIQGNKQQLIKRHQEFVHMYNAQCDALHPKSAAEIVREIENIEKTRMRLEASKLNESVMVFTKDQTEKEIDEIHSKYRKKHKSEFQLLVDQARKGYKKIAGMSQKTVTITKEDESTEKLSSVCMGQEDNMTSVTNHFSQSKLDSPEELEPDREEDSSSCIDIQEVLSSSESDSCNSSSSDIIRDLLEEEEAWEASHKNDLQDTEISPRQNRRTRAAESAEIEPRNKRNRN

[23] = biological target: proteins of U3A human fibrosarcoma cells (4462 proteins detected) (Homo sapiens, UniProt Q9NVH2); conditions: protein INTS7; soluble abundance after heat, U3A cells
Sequence of proteins of U3A human fibrosarcoma cells (4462 proteins detected) (Homo sapiens, UniProt Q9NVH2) (Q9NVH2 whole entry): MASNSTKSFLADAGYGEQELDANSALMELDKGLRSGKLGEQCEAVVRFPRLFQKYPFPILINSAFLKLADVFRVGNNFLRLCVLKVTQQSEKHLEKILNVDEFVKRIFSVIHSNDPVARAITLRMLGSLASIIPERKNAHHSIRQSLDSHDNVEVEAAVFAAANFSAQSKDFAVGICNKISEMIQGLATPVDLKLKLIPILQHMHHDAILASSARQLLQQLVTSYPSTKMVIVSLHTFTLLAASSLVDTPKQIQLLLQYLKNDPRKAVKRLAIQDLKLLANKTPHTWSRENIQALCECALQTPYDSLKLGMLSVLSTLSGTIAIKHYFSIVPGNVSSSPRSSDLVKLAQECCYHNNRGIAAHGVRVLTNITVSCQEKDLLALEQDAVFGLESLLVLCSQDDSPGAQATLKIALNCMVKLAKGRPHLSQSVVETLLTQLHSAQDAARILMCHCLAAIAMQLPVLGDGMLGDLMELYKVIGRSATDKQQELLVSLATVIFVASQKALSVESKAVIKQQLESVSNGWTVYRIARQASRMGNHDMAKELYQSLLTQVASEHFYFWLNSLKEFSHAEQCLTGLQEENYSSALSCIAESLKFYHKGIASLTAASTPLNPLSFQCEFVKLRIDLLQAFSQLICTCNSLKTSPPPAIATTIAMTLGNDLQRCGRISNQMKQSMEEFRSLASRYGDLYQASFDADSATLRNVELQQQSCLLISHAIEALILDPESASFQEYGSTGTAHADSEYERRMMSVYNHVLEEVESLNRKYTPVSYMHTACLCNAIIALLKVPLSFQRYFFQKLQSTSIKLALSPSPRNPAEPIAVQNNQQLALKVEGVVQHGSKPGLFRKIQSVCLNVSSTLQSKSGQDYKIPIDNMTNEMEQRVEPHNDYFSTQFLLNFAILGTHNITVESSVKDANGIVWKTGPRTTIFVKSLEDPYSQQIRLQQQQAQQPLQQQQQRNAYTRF

[24] = biological target: proteins of U3A human fibrosarcoma cells (4462 proteins detected) (Homo sapiens, UniProt Q9P2K3); conditions: protein RCOR3; U3A cells
[25] = biological target: proteins of U3A human fibrosarcoma cells (4462 proteins detected) (Homo sapiens, UniProt Q9UJ68); conditions: protein MSRA, U3A cells
Sequence of proteins of U3A human fibrosarcoma cells (4462 proteins detected) (Homo sapiens, UniProt Q9UJ68) (Q9UJ68 24-235): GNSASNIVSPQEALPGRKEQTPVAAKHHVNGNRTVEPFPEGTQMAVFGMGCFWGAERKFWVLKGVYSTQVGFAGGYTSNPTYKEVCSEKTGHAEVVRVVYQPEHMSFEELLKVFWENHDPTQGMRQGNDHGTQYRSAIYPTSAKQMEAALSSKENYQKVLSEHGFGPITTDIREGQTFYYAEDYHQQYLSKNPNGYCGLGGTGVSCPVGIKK

[26] = biological target: proteins of U3A human fibrosarcoma cells (4462 proteins detected) (Homo sapiens, UniProt Q9Y221); conditions: protein NIP7; soluble abundance after heat, U3A cells
[27] = biological target: proteins of U3A human fibrosarcoma cells (4462 proteins detected) (Homo sapiens, UniProt Q9Y2K1); conditions: protein ZBTB1; U3A cells
Sequence of proteins of U3A human fibrosarcoma cells (4462 proteins detected) (Homo sapiens, UniProt Q9Y2K1) (Q9Y2K1 whole entry): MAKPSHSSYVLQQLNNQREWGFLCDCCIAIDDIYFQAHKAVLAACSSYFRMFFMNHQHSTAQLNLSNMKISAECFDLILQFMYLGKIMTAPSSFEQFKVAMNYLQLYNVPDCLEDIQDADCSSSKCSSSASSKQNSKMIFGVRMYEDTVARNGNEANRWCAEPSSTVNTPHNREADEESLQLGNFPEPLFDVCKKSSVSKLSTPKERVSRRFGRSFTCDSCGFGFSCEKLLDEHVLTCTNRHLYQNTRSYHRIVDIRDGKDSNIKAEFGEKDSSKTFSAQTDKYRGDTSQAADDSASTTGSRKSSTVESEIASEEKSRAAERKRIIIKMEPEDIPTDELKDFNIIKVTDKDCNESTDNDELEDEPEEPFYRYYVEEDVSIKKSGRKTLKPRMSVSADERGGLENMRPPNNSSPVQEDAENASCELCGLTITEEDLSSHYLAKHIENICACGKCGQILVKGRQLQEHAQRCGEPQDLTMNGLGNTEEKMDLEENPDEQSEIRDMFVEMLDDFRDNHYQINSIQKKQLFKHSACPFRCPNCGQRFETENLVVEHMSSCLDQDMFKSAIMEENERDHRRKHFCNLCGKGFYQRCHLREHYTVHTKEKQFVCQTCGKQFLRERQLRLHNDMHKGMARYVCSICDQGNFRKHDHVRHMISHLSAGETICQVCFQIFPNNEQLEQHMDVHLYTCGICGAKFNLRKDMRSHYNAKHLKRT

[28] = biological target: proteins of U3A human fibrosarcoma cells (4462 proteins detected) (Homo sapiens, UniProt Q9Y2Q3); conditions: protein GSTK1; U3A cells
[29] = biological target: proteins of U3A human fibrosarcoma cells (4462 proteins detected) (Homo sapiens, UniProt Q9Y3A4); conditions: protein RRP7A; U3A cells
[30] = biological target: proteins of U3A human fibrosarcoma cells (4462 proteins detected) (Homo sapiens, UniProt Q9Y6G3); conditions: protein MRPL42; soluble abundance after heat, U3A cells

Sequence of proteins of U3A human fibrosarcoma cells (4462 proteins detected) (Homo sapiens, UniProt O60563) (O60563 whole entry): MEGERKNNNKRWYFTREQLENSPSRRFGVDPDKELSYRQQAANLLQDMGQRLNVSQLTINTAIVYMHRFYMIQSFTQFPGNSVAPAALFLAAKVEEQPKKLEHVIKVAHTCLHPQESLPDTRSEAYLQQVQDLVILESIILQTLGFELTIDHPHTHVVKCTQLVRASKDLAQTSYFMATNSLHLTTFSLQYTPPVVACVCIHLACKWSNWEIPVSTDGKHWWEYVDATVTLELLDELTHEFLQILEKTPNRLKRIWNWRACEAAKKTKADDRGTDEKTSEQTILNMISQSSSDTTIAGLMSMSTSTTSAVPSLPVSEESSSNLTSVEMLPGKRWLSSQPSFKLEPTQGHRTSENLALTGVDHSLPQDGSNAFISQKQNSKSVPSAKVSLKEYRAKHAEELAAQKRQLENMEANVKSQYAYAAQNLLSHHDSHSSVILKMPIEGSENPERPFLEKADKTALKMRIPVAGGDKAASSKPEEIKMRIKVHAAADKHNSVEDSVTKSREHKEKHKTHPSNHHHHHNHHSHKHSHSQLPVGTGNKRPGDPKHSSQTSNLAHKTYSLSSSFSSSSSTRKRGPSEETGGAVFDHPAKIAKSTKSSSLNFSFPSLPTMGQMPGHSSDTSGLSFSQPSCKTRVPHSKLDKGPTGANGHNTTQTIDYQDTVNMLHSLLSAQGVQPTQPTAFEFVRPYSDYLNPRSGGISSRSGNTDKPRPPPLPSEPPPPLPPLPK

SMILES: CCc1nc(N)nc(N)c1-c1ccc(Cl)cc1 [pyrimethamine]
- Log2 (PYR/DMSO) [1]: 0.18
- Log2 (PYR/DMSO) [2]: 0.17
- Log2 (PYR/DMSO) [3]: 0.20
- Log2 (PYR/DMSO) [4]: 0.19
- Log2 (PYR/DMSO) [5]: 0.23
- Log2 (PYR/DMSO) [6]: 0.13
- Log2 (PYR/DMSO) [7]: 0.16
- Log2 (PYR/DMSO) [8]: 0.14
- Log2 (PYR/DMSO) [9]: 0.17
- Log2 (PYR/DMSO) [10]: 0.20
- Log2 (PYR/DMSO) [11]: -0.04
- Log2 (PYR/DMSO) [12]: -0.04
- Log2 (PYR/DMSO) [13]: 0.14
- Log2 (PYR/DMSO) [14]: 0.15
- Log2 (PYR/DMSO) [15]: 0.19
- Log2 (PYR/DMSO) [16]: 0.14
- Log2 (PYR/DMSO) [17]: 0.13
- Log2 (PYR/DMSO), LENG8 [18]: 0.27
- Log2 (PYR/DMSO) [19]: -0.04
- Log2 (PYR/DMSO) [20]: 0.13
- Log2 (PYR/DMSO) [21]: 0.17
- Log2 (PYR/DMSO) [22]: 0.17
- Log2 (PYR/DMSO) [23]: 0.15
- Log2 (PYR/DMSO) [24]: 0.21
- Log2 (PYR/DMSO) [25]: -0.04
- Log2 (PYR/DMSO) [26]: 0.14
- Log2 (PYR/DMSO) [27]: 0.22
- Log2 (PYR/DMSO) [28]: 0.18
- Log2 (PYR/DMSO) [29]: 0.19
- Log2 (PYR/DMSO) [30]: 0.14
